{"source": "patent US7432051B2", "about": "“Erythropoietin and erythropoietin receptor expression in human cancer” (The Henry M. Jackson Foundation for the Advancement of …, priority 2000, dated 2008)", "key": {"[1]": {"system": "U251 cells", "assay": "Chemotherapeutic drug toxicity, cell survival by MTT assay", "format": "cell-based, human", "settings": "serum-free media", "protocol": "(§1) U251 cells were grown in 96-well culture dishes to approximately 85% confluence. Serum was withdrawn overnight and 10 μM Cisplatin was added for twenty-four hours. […] Control groups underwent similar serum withdrawal but no Cisplatin exposure. Where indicated rhEpo or Epoetin-alfa was added thirty minutes prior to the addition of cisplatin. Serum withdrawal studies involved assessment of cell survival forty-eight hours following change to serum-free media. […] Where indicated, Epoetin-alfa, tyrosine kinase inhibitors or PI3K inhibitors were added at the time of change to serum-free media. The Student's T-test was used to determine statistically significant differences between treatment groups."}, "[2]": {"system": "U251 cells", "assay": "Hypoxia-sensing response (HIF-1α immunoblot, HIF-1 gelshift, RT-PCR and Western blot for Epo/EpoR)", "format": "cell-based, human", "settings": "150 μM DFX, six-hour treatment", "protocol": "Human glioma cell lines (ATCC) and normal human astrocytes (Clonetics) were cultured in Eagle's MEM medium supplemented with 10% fetal bovine serum, and 1% (v/v) penicillin/streptomycin. The cells were grown to 90% confluence in 10 cm culture dishes. For hypoxia treatment, the culture dishes were sealed in modulator incubator chamber, flushed with gas containing 1% oxygen, 5% carbon dioxide, 94% nitrogen for five minutes, and incubated at 37° C. for four to six hours. For desferrioxamine (DFX) treatment, the cells were cultured with same medium containing […] DFX and incubated in cell culture incubator. Paraffin sections (5 μm) of the human GBMs were prepared and stained by immunohistochemistry methods as described previously (Acs et al. (2001) Cancer Res. 61, 3561-3565).\n(§2) After the treatments to the cell culture dishes described in Example 10, the cells were washed once with 10 ml cold Dulbecco's phosphate-buffered saline (PBS), scraped into 1.5 ml of PBS on ice, and pelleted by centrifugation at 2,000 rpm for three minutes at 4° C. Cell pellets were washed once with 5 packed cell volumes of buffer A (10 mM Tris-HCl (pH 7.5), 1.5 mM magnesium chloride, 10 mM KCl), freshly supplemented with Complete, EDTA-free Protease Inhibitor Cocktail (Roche) and 2 mM dithiothreitol (DTT)), and resuspended in four packed cell volumes of buffer A. After incubation on ice for 10 min, cell suspension was homogenized with thirty strokes in a glass douncer (Wheaton) with type-b pestle. Nuclei were pelleted at 1,000 rpm for ten minutes and resuspended in four packed nuclear volumes of buffer C (20 mM Tris-HCl (pH 7.5), 0.42 M KCl, 1.5 mM magnesium chloride, 20% glycerol, freshly supplemented with Complete, EDTA-free Protease Inhibitor Cocktail (Roche) and 2 mM DTT), and rotated for thirty minutes at 4° C. After centrifugation at 1,400 rpm for thirty minutes, the nuclear extracts were aliquoted and stored at −80° C. Protein concentration was determined by the method of Bradford with a commercial kit (Bio-Rad) using bovine serum albumin as standard. HIF-1α protein was detected by immunoblot analysis. Twenty five to thirty μg of nuclear extracts were boiled for five minutes in 2× denaturing buffer, and loaded onto SDS-7% polyacrylamide gels. After transfer, membranes were blocked with 5% milk in TBST (10 mM Tris-HCl, 150 mM NaCl, 0.1% Tween, pH 7.8) for one and a half hours at room temperature and subsequently incubated with mouse monoclonal HIF-1α antibody (Transduction Labs) for two hours. The membranes were washed with TBST three times and incubated with horseradish peroxidase-conjugated secondary antibody. Then, the membranes were washed three times with TBST and analyzed by enhanced chemiluminescence (Pierce). Analysis of EpoR and phosphotyrosine immunoreactivity was performed as reported previously (Acs et al. (2001) Cancer Res. 61, 3561-3565).\nOligonucleotide probe was generated by 5′ end labeling of the sense strand with gamma-[^32P]ATP (Dupont-NEN) and T4 polynucleotide kinase (Gibco-BRL), annealing to a ten-fold excess of antisense strand, and purification by using NucTrap Probe Purification Column (Stratagene). Binding reactions were carried out in a total volume of 20 μl containing 7.0 μg of nuclear extract and 0.2 μg of calf thymus DNA in buffer Z (20 mM Tris-HCl (pH 7.5), 0.1 M KCl, 0.2 mM EDTA, 20% glycerol, freshly supplemented with 2 mM DTT, 0.4 mM PMSF and 1 mM Na3PO4). […]"}, "[3]": {"system": "U251 cells", "assay": "Serum withdrawal cell survival", "format": "cell-based, human", "settings": "inhibitor added at change to serum-free media, forty-eight hours", "protocol": "as §1"}, "[4]": {"system": "BT-549 cells", "assay": "3H-thymidine incorporation assay of DNA synthesis", "format": "cell-based, human", "protocol": "(§3) To determine whether Epo exerts trophic effects on breast cancer cell lines, the effect of exogenously added Epo on DNA synthesis was examined in MCF-7 and BT-549 cells. DNA synthesis was measured using a ^3H-thymidine incorporation assay. Breast cancer cells plated in six well plates in one ml DMEM supplemented with 20% fetal bovine serum per well were allowed to incubate for sixteen hours. Cells were switched to one ml phenol-free DMEM at the time of treatments. recombinant human Epo (rhEpo) (10 units), or either anti-Epo or anti-EpoR antibodies ([…]) was then added directly to the medium and the cells cultured for another sixteen hours. Thymidine labeling was performed by adding one […] (NEN Life Sciences) for one hour and DNA associated counts were then determined by liquid scintillation as described (Assandri et al. (1999) J. Physiol. 516, 343-352)."}, "[5]": {"system": "MCF-7 cells", "assay": "3H-thymidine incorporation assay of DNA synthesis", "format": "cell-based, human", "protocol": "as §3"}, "[6]": {"system": "cell lines derived from a wide range of tumors including two breast cancer cell lines", "settings": "in particular low doses of erythropoietin; cited from earlier work"}, "[7]": {"system": "MCF-7 cells", "assay": "Western blot of phosphotyrosine containing proteins", "format": "cell-based, human", "settings": "five minute incubation; 250 units/ml rhEpo or 10 μM Epo mimetic peptide"}, "[8]": {"system": "U251 cells", "assay": "Western blot of EpoR associated signaling (tyrosine phosphorylation, Jak-2, STAT-5, Akt)", "format": "cell-based, human", "protocol": "as §2\nUsing the Western blotting techniques described in Example 11 above, the immunoreactive EpoR expressed in human gliomas was further tested to see if it was functional. Cultured U251 cells were stimulated with recombinant human erythropoietin. […] Tyrosine phosphorylation could also be elicited by an Epo-mimetic peptide (EMP) and by Epoetin-alfa, the clinically used form of Epo (FIG. 11B). Using phospho-specific antibodies, we also detected rhEpo stimulated Jak-2 and STAT-5 tyrosine phosphorylation as well as phosphorylation of Akt (FIG. 12C)."}, "[9]": {"settings": "10 units/ml exogenous rhEpo, p<0.01"}, "[10]": {"settings": "rhEpo (10 units) in one ml medium, sixteen hours, p<0.01"}}, "data": [{"molecule": "N.N.[Cl][Pt][Cl]", "note": "[Cisplatin, reference compound]", "values": [{"measurement": "cells killed (cell death)", "setting": "[1]; 10 μM Cisplatin, overnight / twenty-four hours", "value": "approximately 80%"}, {"measurement": "survival fraction", "setting": "[1]; Cisplatin overnight", "value": 0.2}]}, {"molecule": "CC(=O)N(O)CCCCCNC(=O)CCC(=O)N(O)CCCCCNC(=O)CCC(=O)N(O)CCCCCN", "note": "[DFX, desferrioximine]", "values": [{"measurement": "Epo mRNA expression (RT-PCR)", "setting": "[2]", "value": "prominent induction"}, {"measurement": "EpoR mRNA expression (RT-PCR)", "setting": "[2]", "value": "not induced"}, {"measurement": "HIF-1 gelshift activity", "setting": "[2]", "value": "dramatically upregulating"}, {"measurement": "immunoreactive EpoR protein levels", "setting": "[2]", "value": "enhanced"}, {"measurement": "level of HIF-1α protein", "setting": "[2]", "value": "dramatically upregulating"}]}, {"molecule": "O=c1c(-c2ccc(O)cc2)coc2cc(O)cc(O)c12", "note": "[Genistein, reference compound]", "values": [{"measurement": "effect on the protective effect of Epoetin-alfa", "setting": "[3]", "value": "blocked"}]}, {"molecule": "rhEpo: recombinant human Epo (rhEpo), R & D systems", "values": [{"measurement": "enhancement of 3H-thymidine incorporation", "setting": "[4]; [9]", "value": "about 25%"}, {"measurement": "3H-thymidine incorporation, effect in words", "setting": "[4]; rhEpo 100 units/ml (FIG. 2)", "value": "enhanced"}, {"measurement": "potentiation of DNA synthesis", "setting": "[4]; [10]", "value": "approximately 20%"}, {"measurement": "enhancement of 3H-thymidine incorporation", "setting": "[5]; [9]", "value": "about 25%"}, {"measurement": "3H-thymidine incorporation, effect in words", "setting": "[5]; rhEpo 100 units/ml (FIG. 2)", "value": "enhanced"}, {"measurement": "potentiation of DNA synthesis", "setting": "[5]; [10]", "value": "approximately 20%"}, {"measurement": "stimulation of cancer cell proliferation", "setting": "[6]", "value": "no significant stimulation"}, {"measurement": "levels of phosphotyrosine containing proteins versus basal", "setting": "[7]", "value": "markedly enhanced"}, {"measurement": "Jak-2 tyrosine phosphorylation", "setting": "[8]; phospho-specific antibodies", "value": "stimulated"}, {"measurement": "STAT-5 tyrosine phosphorylation", "setting": "[8]; phospho-specific antibodies", "value": "stimulated"}, {"measurement": "phosphorylation of the PI3K substrate Akt", "setting": "[8]; phospho-specific antibodies", "value": "stimulated"}, {"measurement": "tyrosine phosphorylation in several proteins", "setting": "[8]; serum free media, rhEpo 10 U/ml single dose, EMP and Epoetin-alfa thirty minute treatments", "value": "prominent, rapid, and long lasting activation"}, {"measurement": "duration of tyrosine phosphorylation", "setting": "[8]; single dose 10 U/ml rhEpo", "value": "more than two hours"}, {"measurement": "onset of tyrosine phosphorylation", "setting": "[8]; single dose 10 U/ml rhEpo", "value": "within one minute"}]}]}
